# Target: T1, PDE4B (Homo sapiens, UniProt Q07343)
# T1 construct: hexahistidine (His6) (N); made in house
# Test: coupled PDE/AK bioluminescent assay
# Type: biochemical
# Details: catalytic domain of PDE4B
# Text: Phosphodiesterases regulate the activity of the second messenger cyclic adenosine monophosphate (cAMP) by hydrolyzing cAMP to adenosine monophosphate (AMP). We developed a novel coupled PDE/AK bioluminescent high-throughput assay to measure the activity of phosphodiesterases. In the PDE/AK assay, the AMP produced from the hydrolysis of cAMP by phosphodiesterase is converted to adenosine diphosphate (ADP) by the phosphotransferase activity of adenylate kinase (also known as ADK or myokinase). Adenylate kinase will catalyze the conversion of 1 mole of AMP and 1 mole of ATP into 2 moles of ADP. Thus the conversion of AMP to ADP will result in the subsequent loss of ATP. The decrease in ATP concentration can be monitored as light output using luciferase in a reaction that requires ATP to produce light. The PDE/AK assay uses luciferase, which catalyzes the production of light from ATP present in the reaction mix. The amount of emitted light is inversely proportional to the level of AMP present in the reaction. Test compounds are incubated with the phosphodiesterases and phosphodiesterase inhibitors will decrease the rate of cAMP hydrolysis and decrease the subsequent production of AMP. Thus phosphodiesterase inhibitors will decrease the conversion of ATP to ADP and result in the greatest emission of light.
# Compounds may be screened for functional potency in in vitro biochemical assays for their ability to inhibit the activity of phosphodiesterase (PDE) enzymes. A novel coupled PDE/AK assay was utilized to measure the inhibitory activity of compounds on PDE isoforms. The catalytic domain of PDE4B was fused to an amino-terminus hex-histidine affinity tag and purified. PDE4B enzyme was incubated with compounds for 10 minutes. Cyclic AMP substrate, ATP and adenylate kinase were then added to the PDE enzyme mix and incubated for 45 minutes at room temperature. A commercial ATP detection assay, Perkin Elmer's easyLite ATP detection reagent, was then added to measure the relative amount of ATP present in the reaction. After 10 minute incubation, the luminescent signal was quantitated with either the Perkin Elmer Viewlux or Molecular Devices Acquest or Analyst. Roflumilast and Rolipram are the positive controls used in the assay.
# The PDE/AK assay can be performed with any cAMP dependent phosphodiesterase, and can be performed in 96-, 384-, or 1536-well plates. […] Specifically, the use of radioactive substrates in a phosphodiesterase activity assay requires special protocols for handling and waste disposal, and reduced throughput. Modified substrates add the additional complexity of potentially altering the binding to the phosphodiesterase catalytic site. Fluorescently modified substrates may cause fluorescence artifacts that may interfere in the interpretation of assay results. The use of beads that selectively bind to either the cAMP or AMP may cause an additional complexity in reagent handling. The use of antibodies that selectively bind to either cAMP or AMP can be extremely costly with a relatively small signal to noise ratio. Therefore, the novel PDE/AK assay represents a simple, cost-effective alternative to known methods.
# T1 sequence (Q07343 330-659 limits assumed, species assumed): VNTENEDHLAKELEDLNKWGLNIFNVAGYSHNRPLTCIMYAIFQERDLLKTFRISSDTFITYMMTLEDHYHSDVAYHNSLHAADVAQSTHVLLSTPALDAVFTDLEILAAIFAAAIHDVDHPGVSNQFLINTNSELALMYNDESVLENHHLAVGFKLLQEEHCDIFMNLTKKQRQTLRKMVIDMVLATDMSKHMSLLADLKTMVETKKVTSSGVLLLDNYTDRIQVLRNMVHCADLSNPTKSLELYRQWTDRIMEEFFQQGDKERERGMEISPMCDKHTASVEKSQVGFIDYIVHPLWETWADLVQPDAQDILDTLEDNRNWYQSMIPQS
smiles,measurement,value
"COc1ccc2c(Nc3c(Cl)cccc3Cl)ncnc2c1OC1CCCC1 [Example 1, 8-(Cyclopentyloxy)-N-(2,6-dichlorophenyl)-7-methoxyquinazolin-4-amine]",IC50,> 1000 nM
"COc1ccc2c(Nc3c(Cl)cncc3Cl)ncnc2c1OC1CCCC1 [Example 2, 8-(Cyclopentyloxy)-N-(3,5-dichloropyridin-4-yl)-7-methoxyquinazolin-4-amine]",IC50,> 1000 nM
"COc1ccc2c(Cc3c(Cl)cncc3Cl)ncnc2c1OC1CCCC1 [Example 3, 8-(Cyclopentyloxy)-4-[(3,5-dichloropyridin-4-yl)methyl]-7-methoxyquinazoline]",IC50,≤ 1000 nM
"COc1ccc2c(Nc3c(Cl)cccc3Cl)ccnc2c1OC1CCCC1 [Example 4, 8-(Cyclopentyloxy)-N-(2,6-dichlorophenyl)-7-methoxyquinolin-4-amine]",IC50,> 1000 nM
"COc1ccc2c(Nc3c(Cl)cncc3Cl)ccnc2c1OC1CCCC1 [Example 5, 8-(Cyclopentyloxy)-N-(3,5-dichloropyridin-4-yl)-7-methoxyquinolin-4-amine]",IC50,> 1000 nM
"COc1ccc2c(Cc3c(Cl)cncc3Cl)ccnc2c1OC1CCCC1 [Example 6, 8-(Cyclopentyloxy)-4-[(3,5-dichloropyridin-4-yl)methyl]-7-methoxyquinoline]",IC50,> 1000 nM
"COc1ccc2c(Nc3c(Cl)cccc3Cl)nccc2c1OC1CCCC1 [Example 7, 5-(Cyclopentyloxy)-N-(2,6-dichlorophenyl)-6-methoxyisoquinolin-1-amine]",IC50,> 1000 nM
COc1ccc2c(Nc3c(Cl)cncc3Cl)nccc2c1OC1CCCC1 [Example 8],IC50,≤ 1000 nM
"COc1ccc2c(Cc3c(Cl)cncc3Cl)nccc2c1OC1CCCC1 [Example 9, 5-(Cyclopentyloxy)-1-[(3,5-dichloropyridin-4-yl)methyl]-6-methoxyisoquinoline]",IC50,> 1000 nM
"COc1ccc2c(Nc3c(Cl)cncc3Cl)coc2c1OC1CCCC1 [Example 10, 3,5-Dichloro-N-[7-(cyclopentyloxy)-6-methoxybenzofuran-3-yl]pyridine-4-amine]",IC50,> 1000 nM
"COc1ccc2c(Nc3c(Cl)cccc3Cl)ccnc2c1OC [Example 11, N-(2,6-Dichlorophenyl)-7,8-dimethoxyquinolin-4-amine]",IC50,> 1000 nM
"COc1ccc2c(NCc3c(Cl)cccc3Cl)coc2c1OC1CCCC1 [Example 12, 7-(Cyclopentyloxy)-N-(2,6-dichlorobenzyl)-6-methoxybenzofuran-3-amine]",IC50,> 1000 nM
"COc1ccc2c(Nc3c(Cl)cnc(Cl)c3Cl)ccnc2c1OC1CCCC1 [Example 13, 8-(Cyclopentyloxy)-7-methoxy-N-(2,3,5-trichloropyridin-4-yl)quinolin-4-amine]",IC50,> 1000 nM
"COc1ccc2c(Nc3c(Cl)c(Cl)nc(Cl)c3Cl)ccnc2c1OC1CCCC1 [Example 14, 8-(Cyclopentyloxy)-7-methoxy-N-(perchloropyridin-4-yl)quinolin-4-amine]",IC50,> 1000 nM
"COc1ccc2c(Nc3c(C)cncc3C)ccnc2c1OC1CCCC1 [Example 15, 8-(Cyclopentyloxy)-N-(3,5-dimethylpyridin-4-yl)-7-methoxyquinolin-4-amine]",IC50,> 1000 nM
"COc1ccc2c(Nc3c(Br)cncc3Br)ccnc2c1OC1CCCC1 [Example 16, 8-(Cyclopentyloxy)-N-(3,5-dibromopyridin-4-yl)-7-methoxyquinolin-4-amine]",IC50,> 1000 nM
"COc1ccc2c(c1OC1CCCC1)OCCC2Nc1c(Cl)cncc1Cl (stereo not drawn) [Example 17, 3,5-Dichloro-N-(8-(cyclopentyloxy)-7-methoxychroman-4-yl)pyridin-4-amine]",IC50,> 1000 nM
"COc1ccc2c(C(=O)Nc3c(Cl)cncc3Cl)coc2c1OC1CCCC1 [Example 18, 7-(Cyclopentyloxy)-N-(3,5-dichloropyridin-4-yl)-6-methoxybenzofuran-3-carboxamide]",IC50,> 1000 nM
"COc1cc(Nc2c(Cl)cncc2Cl)c2ccc(OC)c(OC3CCCC3)c2n1 [Example 19, 8-(Cyclopentyloxy)-N-(3,5-dichloropyridin-4-yl)-2,7-dimethoxyquinolin-4-amine]",IC50,≤ 1000 nM
"CCOc1cc(Nc2c(Cl)cncc2Cl)c2ccc(OC)c(OC3CCCC3)c2n1 [Example 20, 8-(Cyclopentyloxy)-N-(3,5-dichloropyridin-4-yl)-2-ethoxy-7-methoxyquinolin-4-amine]",IC50,≤ 1000 nM
"COc1ccc2c(Nc3c(Cl)cncc3Cl)cc(N(C)C)nc2c1OC1CCCC1 [Example 21, 8-(Cyclopentyloxy)-N4-(3,5-dichloropyridin-4-yl)-7-methoxy-N2,N2-dimethylquinoline-2,4-diamine]",IC50,≤ 1000 nM
"CNc1cc(Nc2c(Cl)cncc2Cl)c2ccc(OC)c(OC3CCCC3)c2n1 [Example 22, 8-(Cyclopentyloxy)-N4-(3,5-dichloropyridin-4-yl)-7-methoxy-N2-methylquinoline-2,4-diamine]",IC50,≤ 1000 nM
"COc1ccc2c(Nc3c(Cl)cncc3Cl)cc(Cl)nc2c1OC1CCCC1 [Example 24, 2-Chloro-8-(cyclopentyloxy)-N-(3,5-dichloropyridin-4-yl)-7-methoxyquinolin-4-amine]",IC50,≤ 1000 nM
"COc1ccc2c(Nc3c(Cl)cncc3Cl)c(Cl)c(OCCN(C)C)nc2c1OC1CCCC1 [Example 26, 3-Chloro-8-(cyclopentyloxy)-N-(3,5-dichloropyridin-4-yl)-2-(2-(dimethylamino)ethoxy)-7-methoxyquinolin-4-amine]",IC50,≤ 1000 nM
"COc1ccc2c(Nc3c(Cl)cncc3Cl)cc(OCCO)nc2c1OC1CCCC1 [Example 27, 2-(8-(Cyclopentyloxy)-4-(3,5-dichloropyridin-4-ylamino)-7-methoxyquinolin-2-yloxy)ethanol]",IC50,≤ 1000 nM
"COc1ccc2c(Nc3c(Cl)cncc3Cl)cc(OCCN3CCOCC3)nc2c1OC1CCCC1 [Example 28, 8-(Cyclopentyloxy)-N-(3,5-dichloropyridin-4-yl)-7-methoxy-2-(2-morpholinoethoxy)quinolin-4-amine]",IC50,≤ 1000 nM
"COc1ccc2c(Nc3c(Cl)cncc3Cl)cc(OCCCN(C)C)nc2c1OC1CCCC1 [Example 29, 8-(Cyclopentyloxy)-N-(3,5-dichloropyridin-4-yl)-2-(3-(dimethylamino)propoxy)-7-methoxyquinolin-4-amine]",IC50,≤ 1000 nM
